Measured values published in publication PMC10666288, “Unveiling the Catalytic Mechanism of a Processive Metalloaminopeptidase” (Biochemistry, 2023).
Where “and” joins values, the source holds several entries; their conditions need not be identical. Equal values may be shown once. Read-outs that look alike come from different tables or passages of the source.

Columns and labels:
Parameters in all cases: GG stays after cleavage) (N); made in house; host or cells: E. coli BL21(DE3)
[1] = molecular target: T1, PaPepA (Pseudomonas aeruginosa, UniProt Q02RY8); assay type: biochemical
T1 sequence (Q02RY8 whole entry): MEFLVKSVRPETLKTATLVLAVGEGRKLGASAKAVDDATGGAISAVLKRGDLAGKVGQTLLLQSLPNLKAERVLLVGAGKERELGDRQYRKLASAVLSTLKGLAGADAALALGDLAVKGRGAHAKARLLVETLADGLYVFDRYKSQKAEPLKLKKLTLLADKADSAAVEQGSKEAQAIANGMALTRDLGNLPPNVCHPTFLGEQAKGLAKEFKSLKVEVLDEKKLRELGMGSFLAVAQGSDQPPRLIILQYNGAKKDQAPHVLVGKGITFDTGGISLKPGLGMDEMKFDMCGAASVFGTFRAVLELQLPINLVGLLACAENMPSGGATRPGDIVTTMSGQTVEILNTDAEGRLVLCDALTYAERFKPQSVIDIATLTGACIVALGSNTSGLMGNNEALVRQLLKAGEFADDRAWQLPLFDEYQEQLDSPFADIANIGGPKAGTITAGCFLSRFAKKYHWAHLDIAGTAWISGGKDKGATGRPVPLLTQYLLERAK

[2] = molecular target: T1, PaPepA; assay: Solvent kinetic isotope effects; assay type: biochemical; conditions: H2O vs 80% D2O, metal varied, Leu-pNA fixed, pH 8.0
Description: SKIEs were determined by plotting saturation curves in H2O or 80% D2O. […] Differences between reaction rates under initial velocity conditions were measured varying the concentration of either Leu-pNA or Mn^2+, while keeping the other component constant and in excess (at least 5× the value of KM or KACT, Scheme 2). Experiments were performed at pH 8.0 (100 mM HEPES, with 50 mM KCl). For proton inventory studies, D2O was varied from 0 to 80% in 10% increments. All proton inventory studies were carried out on the same day by using the same enzyme stock.
When calculating SKIEs, kcat and KM were obtained from the Michaelis–Menten curves in H2O. The 80% D2O Michaelis–Menten curve was fit to the following equation: [drawing 2] 2 where Fi is the fraction D2O, and EV/K and EV are the isotope effects −1 on kcat/KM and kcat, respectively.

[3] = molecular target: T1, PaPepA; assay: Metal activation of Leu-pNA cleavage (metal varied, Leu-pNA fixed); assay type: biochemical; conditions: with 2 mM Leu-pNA
Description: A BMG Labtech POLARstar Omega plate reader was used for activity assays and kinetic studies involving amino acids conjugated to para-nitroaniline (pNA) (Sigma) or peptides as substrates. Assays were carried out at 25 °C in clear half-area 96-well plates (Greiner Bio-One). […] For kinetic assays investigating Leu-AMC as a substrate, a SpectraMax M2E was used. Reactions were carried out using black half-area 96-well plates with clear bottoms (Greiner Bio-One). Product formation was assessed by monitoring changes in fluorescence, with the excitation wavelength set at 341 nm and emission at 441 nm. The cutoff was 420 nm. PMT gain was set to medium, with six flashes per read. […] Calibration curves of pNA concentration vs absorbance and AMC vs fluorescence were constructed, and initial rate values were divided by the slope of these calibration curves to reveal the rate of product formation over time (Table S2).
For all assays excluding pH dependence curves, buffer conditions were as follows: 100 mM HEPES, 50 mM KCl, and pH 8.0. For assays carried out under pseudo-first-order conditions, one reaction component was fixed and in excess, while the other was varied. […] For assays involving variation of aa-pNA or aa-AMC, MnCl2 was added to a final concentration of 3 mM.

[4] = molecular target: T1, PaPepA; assay: Room-temperature EPR spectroscopy Mn2+ titration; conditions: 20 μM PaPepA, 1:0.9 enzyme:Mn^2+ binding model, to be taken as upper limit
Description: EPR spectra were obtained with a Bruker EMX 10/12 spectrometer running Xenon software and equipped with an ELEXSYS Super Hi-Q resonator at an operating frequency of ∼9.5 GHz with a 100 kHz modulation. EPR spectra for Mn titrations were recorded at room temperature using a 160 mT field sweep centered at 350 mT, a time constant of 40.96 ms, a conversion time of 133.53 ms, and a 480-point resolution. An attenuation of 10 dB (20.7 mW power) and a modulation amplitude of 1 mT were used. Spectra were phase- and background-corrected, and the double integral was obtained using the Xenon software.
For acquiring EPR spectra, 20 μM PaPepA was used in 100 mM HEPES pH 7.5, 50 mM KCl with increasing concentration of MnCl2: 0–30 μM in steps of 2, 35, and 40 μM (18 steps). For the calibration curve, the same buffer and steps were employed in the absence of enzyme.

[5] = molecular target: T1, PaPepA; assay type: biochemical; remark: listed apart in the source
Source text: Viscosity effects were studied by using sucrose as a viscogen. Relative viscosities for different concentrations of sucrose were taken from Bazelyansky et al.[27] Concentrations of viscogen were as follows: 14% sucrose, ηrel = 1.5; 24% sucrose, ηrel = 2.2; and 32% sucrose, ηrel = 2.9.
Viscosity effects were fit to the following equation, where kinetic parameter0 and kinetic parameterη are kcat or kcat/KM in the […] of viscogen, respectively, ηrel is the relative viscosity of the solution, and m is the slope. [drawing 4] 4
All measurements were performed in triplicate.

[6] = H2O (0% PEG-8000), MnCl2 varied

Question: How did the KACT ([1]; 5 % PEG 8000, MnCl2 varied) turn out when `[Mn+2]` [Mn^2+] was run?
Answer: Its KACT is 0.19 ± 0.03.

Question: What about the kcat/KACT ([1]; 5 % PEG 8000, MnCl2 varied) of the same compound?
Answer: The kcat/KACT was 2.2 ± 0.4.

Question: What about the kcat ([1]; 5 % PEG 8000, labelled component varied, other saturating, in 1/s) of the same compound?
Answer: Its kcat is 0.43 ± 0.02.

Question: And the “^D2Okcat” value [2]?
Answer: The value was 3.9 ± 0.1.

Question: What about the “^D2Okcat/KACT” value [2] of the same compound?
Answer: The value was 1.9 ± 0.2.

Question: And the KACT ([3]; pH 8.0)?
Answer: Its KACT is 0.10 ± 0.01 mM.

Question: And the kcat ([3]; pH 8.0)?
Answer: Its kcat is 0.27 s^–1 and 0.274 ± 0.004 s^–1.

Question: And the kcat/KACT ([3]; pH 8.0)?
Answer: Its kcat/KACT is 2.7 ± 0.2 s^–1mM^–1.

Question: And the KACT ([3]; pH 8.0, as given in text)?
Answer: Its KACT is 0.1 mM.

Question: And the Kd [4]?
Answer: The Kd was 174 nM and ~174 nM.

Question: And the KACT [5, 6]?
Answer: Its KACT is 0.19 ± 0.01.

Question: What about the kcat/KACT [5, 6] of the same compound?
Answer: The kcat/KACT was 2.2 ± 0.2.

Question: And the kcat ([5]; H2O (0% PEG-8000), labelled component varied, other saturating, in 1/s)?
Answer: The kcat was 0.409 ± 0.009.

Question: What about the “Slope (sucrose) on kcat/KACT” value ([5]; sucrose as viscogen, Mn2+ variation) of the same compound?
Answer: The value was -0.10 ± 0.06.

Question: And the “Slope (sucrose) on kcat” value ([5]; sucrose as viscogen, labelled component varied)?
Answer: The value was 0.14 ± 0.05.
